# According to ChEMBL document CHEMBL6115051, “Design of Novel Mercapto-3-phenylpropanoyl Dipeptides as Dual Angiotensin-Converting Enzyme C-Domain-Selective/Neprilysin Inhibitors” (J Med Chem, 2025):
# Columns and labels:
# [1] = biological target: T1, Angiotensin-converting enzyme (Homo sapiens, UniProt P12821); assay: Inhibition of human glycosylated N-terminal catalytic ACE domain using Cbz-Phe-His-Leu substrate by fluorogenic end point activity assay
# [2] = biological target: T1, Angiotensin-converting enzyme; assay: Inhibition of human glycosylated C-terminal catalytic ACE domain using Cbz-Phe-His-Leu substrate by fluorogenic end point activity assay
# [3] = biological target: Neprilysin (Homo sapiens, UniProt P08473); assay: Inhibition of human NEP ectodomain using MCA-RPPGFSAFK-(Dnp)-OH peptide as substrate by continuous activity assay
# [4] = organism: Homo sapiens; assay: Selectivity factor, ratio of IC50 for human glycosylated nACE to IC50 for human glycosylated cACE
# T1 sequence (P12821 whole entry, the tested form may be a part): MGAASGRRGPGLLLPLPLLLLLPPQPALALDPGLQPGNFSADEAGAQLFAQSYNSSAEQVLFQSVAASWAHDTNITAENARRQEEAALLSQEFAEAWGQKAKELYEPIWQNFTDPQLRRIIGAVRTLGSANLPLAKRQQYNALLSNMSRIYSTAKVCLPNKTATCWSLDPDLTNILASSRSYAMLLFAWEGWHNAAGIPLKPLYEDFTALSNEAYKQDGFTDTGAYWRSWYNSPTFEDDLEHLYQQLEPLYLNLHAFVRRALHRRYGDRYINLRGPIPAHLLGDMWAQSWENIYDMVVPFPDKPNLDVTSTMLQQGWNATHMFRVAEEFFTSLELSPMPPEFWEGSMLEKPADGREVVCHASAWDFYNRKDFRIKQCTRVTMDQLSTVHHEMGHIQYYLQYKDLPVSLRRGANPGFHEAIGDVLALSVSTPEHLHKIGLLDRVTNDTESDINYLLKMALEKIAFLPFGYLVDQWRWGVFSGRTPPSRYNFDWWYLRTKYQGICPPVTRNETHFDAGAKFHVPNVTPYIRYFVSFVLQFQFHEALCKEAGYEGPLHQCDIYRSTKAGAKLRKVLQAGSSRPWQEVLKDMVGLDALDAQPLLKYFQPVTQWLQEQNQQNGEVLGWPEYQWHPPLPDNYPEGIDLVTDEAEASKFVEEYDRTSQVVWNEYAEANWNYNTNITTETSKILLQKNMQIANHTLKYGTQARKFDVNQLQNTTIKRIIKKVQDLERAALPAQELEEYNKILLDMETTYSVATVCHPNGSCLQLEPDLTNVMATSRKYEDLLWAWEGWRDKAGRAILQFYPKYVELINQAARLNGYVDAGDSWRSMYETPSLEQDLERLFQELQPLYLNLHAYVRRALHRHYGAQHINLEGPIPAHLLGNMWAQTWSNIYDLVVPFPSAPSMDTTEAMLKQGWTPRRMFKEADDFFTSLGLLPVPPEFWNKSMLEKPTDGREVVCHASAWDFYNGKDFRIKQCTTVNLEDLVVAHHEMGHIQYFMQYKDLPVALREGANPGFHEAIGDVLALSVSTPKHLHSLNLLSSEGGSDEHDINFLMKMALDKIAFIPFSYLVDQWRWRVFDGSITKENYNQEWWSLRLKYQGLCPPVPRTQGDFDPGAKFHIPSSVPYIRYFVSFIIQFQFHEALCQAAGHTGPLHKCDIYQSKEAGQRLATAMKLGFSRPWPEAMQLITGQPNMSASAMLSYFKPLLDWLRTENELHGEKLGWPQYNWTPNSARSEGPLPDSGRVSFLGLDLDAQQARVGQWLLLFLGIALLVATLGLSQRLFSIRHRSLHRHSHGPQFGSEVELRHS
# Neprilysin, sequence (P08473 whole entry, the tested form may be a part): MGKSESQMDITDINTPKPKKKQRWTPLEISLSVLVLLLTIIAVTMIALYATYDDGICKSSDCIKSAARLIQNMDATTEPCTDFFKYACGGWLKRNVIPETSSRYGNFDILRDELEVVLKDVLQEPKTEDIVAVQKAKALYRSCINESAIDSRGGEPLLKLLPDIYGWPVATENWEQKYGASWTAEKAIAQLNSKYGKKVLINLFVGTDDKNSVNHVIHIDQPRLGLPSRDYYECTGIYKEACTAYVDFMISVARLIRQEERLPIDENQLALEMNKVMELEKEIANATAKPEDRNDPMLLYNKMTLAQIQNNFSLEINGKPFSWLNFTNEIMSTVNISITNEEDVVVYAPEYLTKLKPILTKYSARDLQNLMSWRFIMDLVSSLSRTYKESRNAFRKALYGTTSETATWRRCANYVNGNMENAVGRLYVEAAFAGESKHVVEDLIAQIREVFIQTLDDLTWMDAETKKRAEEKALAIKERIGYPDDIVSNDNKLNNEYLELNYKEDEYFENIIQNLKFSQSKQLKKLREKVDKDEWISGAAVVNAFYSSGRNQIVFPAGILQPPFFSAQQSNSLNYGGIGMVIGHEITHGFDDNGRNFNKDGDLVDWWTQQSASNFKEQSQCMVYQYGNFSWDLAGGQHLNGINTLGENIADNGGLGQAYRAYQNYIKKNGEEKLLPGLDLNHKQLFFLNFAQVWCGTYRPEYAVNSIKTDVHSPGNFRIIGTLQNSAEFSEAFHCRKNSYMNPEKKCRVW
IC50 [1] [µM],IC50 [2] [µM],IC50 [3] [µM],Ratio IC50 [4],SMILES
6,4.1,> 100,1.5,Cc1ccc([C@H]2CC[C@@H](C(=O)O)N2C(=O)CN[C@@H](CCc2ccccc2)C(=O)O)cc1
–,0.007,–,–,NCCCC[C@H](NC(=O)[C@@H](S)Cc1ccccc1)C(=O)N[C@@H](Cc1c[nH]c2ccccc12)C(=O)O
3.1,0.08,> 250,39,NCCCC[C@H](N[C@@H](CCc1ccccc1)C(=O)O)C(=O)N[C@@H](Cc1c[nH]c2ccccc12)C(=O)O
–,0.009,–,–,O=C(NCC(=O)N1[C@@H](c2cccc(O)c2)CC[C@H]1C(=O)O)[C@@H](S)Cc1ccc(O)cc1
